Assay results from US11446287B2, “Compounds and methods for EP300 or CBP modulation and indications therefor” (Opna Immuno-Oncology SA, priority 2019, dated 2022).

Biological target: T1, Recombinant human CBP containing the bromodomain (CBP-BD (1043-1159)) (Homo sapiens, UniProt Q92793)
T1 construct: Recombinant human CBP bromodomain (CBP-BD (1043-1159)); made in house; host or cells: E. coli BL21-CodonPlus (DE3), modified pET vector
Test: CBP Alphascreen binding assay
Details: read-out: CREBBP (CBP) IC50
How it was run: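 Buffer: 50 mM HEPES pH 7.5, 50 mM NaCl, 0.01% BSA, 0.01% Triton X-100, 2 mM DTT. The signal was normalised to plate controls and fitted with a four-parameter curve to give IC50.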

T1 sequence (Q92793 1081-1197): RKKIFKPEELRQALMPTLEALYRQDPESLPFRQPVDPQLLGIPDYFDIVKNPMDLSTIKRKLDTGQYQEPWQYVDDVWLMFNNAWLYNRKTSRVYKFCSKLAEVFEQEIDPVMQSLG

| Structure (SMILES) | IC50 [nM] |
| --- | --- |
| COc1cc(C(=O)O)ncc1-c1cn(C(C2CC2)C2CC2)c2ncc(-c3c(C)noc3C)cc12 [P-0339, 5-(1-(dicyclopropylmethyl)-5-(3,5-dimethylisoxazol-4-yl)-1H-pyrrolo[2,3-b]pyridin-3-yl)-4-methoxypicolinic acid] | 0.1 to 1000 |
| Cc1noc(C)c1-c1cnc2c(c1)c(-c1c(Cl)cc(C(=O)O)cc1OCC(F)F)cn2C(C1CC1)C1CC1 [P-0340, 3-chloro-4-(1-(dicyclopropylmethyl)-5-(3,5-dimethylisoxazol-4-yl)-1H-pyrrolo[2,3-b]pyridin-3-yl)-5-(2,2-difluoroethoxy)benzoic acid] | 0.1 to 1000 |
| Cc1noc(C)c1-c1cnc2c(c1)c(-c1ccc(C(=O)O)cc1OC1CCC1)cn2C1CCOCC1 [P-0341, 3-cyclobutoxy-4-(5-(3,5-dimethylisoxazol-4-yl)-1-(tetrahydro-2H-pyran-4-yl)-1H-pyrrolo[2,3-b]pyridin-3-yl)benzoic acid] | 0.1 to 1000 |
| Cc1noc(C)c1-c1cnc2c(c1)c(-c1ccc(C(=O)O)cc1OC(C)C)c(C)n2C(C1CC1)C1CC1 [P-0342, 4-(1-(dicyclopropylmethyl)-5-(3,5-dimethylisoxazol-4-yl)-2-methyl-1H-pyrrolo[2,3-b]pyridin-3-yl)-3-isopropoxybenzoic acid] | 0.1 to 1000 |
| Cc1noc(C)c1-c1cnc2c(c1)c(-c1ccc(C(=O)O)cc1OC(F)(F)F)c(C)n2C(C1CC1)C1CC1 [P-0343, 4-(1-(dicyclopropylmethyl)-5-(3,5-dimethylisoxazol-4-yl)-2-methyl-1H-pyrrolo[2,3-b]pyridin-3-yl)-3-(trifluoromethoxy)benzoic acid] | 0.1 to 1000 |
| Cc1noc(C)c1-c1ccc2c(c1)c(-c1ccc(C(=O)O)cc1OC(F)(F)F)cn2C(C1CC1)C1CC1 [P-0344, 4-(1-(dicyclopropylmethyl)-5-(3,5-dimethylisoxazol-4-yl)-1H-indol-3-yl)-3-(trifluoromethoxy)benzoic acid] | 0.1 to 1000 |
| Cc1noc(C)c1-c1cnc2c(c1)c(-c1ccc(C(=O)O)cc1OC(F)(F)F)c(C)n2-c1ncccc1C#N [P-0345, 4-(1-(3-cyanopyridin-2-yl)-5-(3,5-dimethylisoxazol-4-yl)-2-methyl-1H-pyrrolo[2,3-b]pyridin-3-yl)-3-(trifluoromethoxy)benzoic acid] | 0.1 to 1000 |
| Cc1noc(C)c1-c1cnc2c(c1)c(-c1c(Cl)cc(C(=O)O)cc1OC(F)(F)F)cn2[C@H]1CCOC1 [P-0346, (S)-3-chloro-4-(5-(3,5-dimethylisoxazol-4-yl)-1-(tetrahydrofuran-3-yl)-1H-pyrrolo[2,3-b]pyridin-3-yl)-5-(trifluoromethoxy)benzoic acid] | 0.1 to 1000 |
| Cc1noc(C)c1-c1cnc2c(c1)c(-c1ccc(C(=O)O)cc1OC1CCC1)cn2-c1cnc(N2CCC2)nc1 [P-0347, 4-(1-(2-(azetidin-1-yl)pyrimidin-5-yl)-5-(3,5-dimethylisoxazol-4-yl)-1H-pyrrolo[2,3-b]pyridin-3-yl)-3-cyclobutoxybenzoic acid] | 0.1 to 1000 |
| Cc1noc(C)c1-c1cnc2c(c1)c(-c1c(F)cc(C(=O)O)cc1OCC(F)F)cn2-c1cnc(N2CCC2)nc1 [P-0348, 4-(1-(2-(azetidin-1-yl)pyrimidin-5-yl)-5-(3,5-dimethylisoxazol-4-yl)-1H-pyrrolo[2,3-b]pyridin-3-yl)-3-(2,2-difluoroethoxy)-5-fluorobenzoic acid] | 0.1 to 1000 |
| Cc1nn(C(F)F)cc1-n1cc(-c2ccc(C(=O)O)cc2OCC(F)F)c2cc(-c3c(C)noc3C)cnc21 [P-0349, 3-(2,2-difluoroethoxy)-4-(1-(1-(difluoromethyl)-3-methyl-1H-pyrazol-4-yl)-5-(3,5-dimethylisoxazol-4-yl)-1H-pyrrolo[2,3-b]pyridin-3-yl)benzoic acid] | 0.1 to 1000 |
| Cc1noc(C)c1-c1cnc2c(c1)c(-c1ccc(C(=O)O)cc1OC1CCC1)cn2[C@H]1CCOC1 [P-0350, (S)-3-cyclobutoxy-4-(5-(3,5-dimethylisoxazol-4-yl)-1-(tetrahydrofuran-3-yl)-1H-pyrrolo[2,3-b]pyridin-3-yl)benzoic acid] | 0.1 to 1000 |
| Cc1nn(C(F)F)cc1-n1cc(-c2ccc(C(=O)O)cc2OC2CCC2)c2cc(-c3c(C)noc3C)cnc21 [P-0351, 3-cyclobutoxy-4-(1-(1-(difluoromethyl)-3-methyl-1H-pyrazol-4-yl)-5-(3,5-dimethylisoxazol-4-yl)-1H-pyrrolo[2,3-b]pyridin-3-yl)benzoic acid] | 0.1 to 1000 |
| Cc1noc(C)c1-c1cnc2c(c1)c(-c1c(Cl)cc(C(=O)O)cc1OCC(F)F)cn2-c1cnn(C(F)F)c1C [P-0352, 3-chloro-5-(2,2-difluoroethoxy)-4-(1-(1-(difluoromethyl)-5-methyl-1H-pyrazol-4-yl)-5-(3,5-dimethylisoxazol-4-yl)-1H-pyrrolo[2,3-b]pyridin-3-yl)benzoic acid] | 0.1 to 1000 |
| Cc1noc(C)c1-c1cnc2c(c1)c(-c1ccc(C(=O)O)cc1OC1CCC1)cn2-c1cnn(C(F)F)c1C [P-0353, 3-cyclobutoxy-4-(1-(1-(difluoromethyl)-5-methyl-1H-pyrazol-4-yl)-5-(3,5-dimethylisoxazol-4-yl)-1H-pyrrolo[2,3-b]pyridin-3-yl)benzoic acid] | 0.1 to 1000 |
| Cc1noc(C)c1-c1cnc2c(c1)c(-c1ccc(C(=O)O)cc1OC(C)C)cn2-c1cnn(C(F)F)c1C [P-0354, 4-(1-(1-(difluoromethyl)-5-methyl-1H-pyrazol-4-yl)-5-(3,5-dimethylisoxazol-4-yl)-1H-pyrrolo[2,3-b]pyridin-3-yl)-3-isopropoxybenzoic acid] | 0.1 to 1000 |
| Cc1noc(C)c1-c1cnc2c(c1)c(-c1c(Cl)cc(C(=O)O)cc1OC(F)(F)F)cn2C1CCOCC1 [P-0355, 3-chloro-4-(5-(3,5-dimethylisoxazol-4-yl)-1-(tetrahydro-2H-pyran-4-yl)-1H-pyrrolo[2,3-b]pyridin-3-yl)-5-(trifluoromethoxy)benzoic acid] | 0.1 to 1000 |
| Cc1noc(C)c1-c1cnc2c(c1)c(-c1c(Cl)cc(C(=O)O)cc1OC1CCC1)cn2C(C1CC1)C1CC1 [P-0356, 3-chloro-5-cyclobutoxy-4-(1-(dicyclopropylmethyl)-5-(3,5-dimethylisoxazol-4-yl)-1H-pyrrolo[2,3-b]pyridin-3-yl)benzoic acid] | 0.1 to 1000 |
| Cc1noc(C)c1-c1cnc2c(c1)c(-c1ccc(C(=O)O)cc1OC(C)C)cn2C1CCOCC1 [P-0357, 4-(5-(3,5-dimethylisoxazol-4-yl)-1-(tetrahydro-2H-pyran-4-yl)-1H-pyrrolo[2,3-b]pyridin-3-yl)-3-isopropoxybenzoic acid] | 0.1 to 1000 |
| Cc1noc(C)c1-c1cnc2c(c1)c(-c1c(Cl)cc(C(=O)O)cc1OC1CCC1)cn2C1CCOCC1 [P-0358, 3-chloro-5-cyclobutoxy-4-(5-(3,5-dimethylisoxazol-4-yl)-1-(tetrahydro-2H-pyran-4-yl)-1H-pyrrolo[2,3-b]pyridin-3-yl)benzoic acid] | 0.1 to 1000 |
| Cc1noc(C)c1-c1cnc2c(c1)c(-c1c(Cl)cc(C(=O)O)cc1OCC(F)F)cn2C1CCOCC1 [P-0359, 3-chloro-5-(2,2-difluoroethoxy)-4-(5-(3,5-dimethylisoxazol-4-yl)-1-(tetrahydro-2H-pyran-4-yl)-1H-pyrrolo[2,3-b]pyridin-3-yl)benzoic acid] | 0.1 to 1000 |
| CCOc1cc(C(=O)O)c(F)cc1-c1cn([C@H]2CCOC2)c2ncc(-c3c(C)noc3C)cc12 [P-0360, (S)-4-(5-(3,5-dimethylisoxazol-4-yl)-1-(tetrahydrofuran-3-yl)-1H-pyrrolo[2,3-b]pyridin-3-yl)-5-ethoxy-2-fluorobenzoic acid] | 0.1 to 1000 |
| Cc1noc(C)c1-c1cnc2c(c1)c(-c1c(Cl)cc(C(=O)O)cc1OC1CCC1)cn2[C@H]1CCOC1 [P-0361, (S)-3-chloro-5-cyclobutoxy-4-(5-(3,5-dimethylisoxazol-4-yl)-1-(tetrahydrofuran-3-yl)-1H-pyrrolo[2,3-b]pyridin-3-yl)benzoic acid] | 0.1 to 1000 |
| COc1cc(C(=O)O)ncc1-c1cn(C2CCOCC2)c2ncc(-c3c(C)noc3C)cc12 [P-0362, 5-(5-(3,5-dimethylisoxazol-4-yl)-1-(tetrahydro-2H-pyran-4-yl)-1H-pyrrolo[2,3-b]pyridin-3-yl)-4-methoxypicolinic acid] | 0.1 to 1000 |
| Cc1noc(C)c1-c1cnc2c(c1)c(-c1c(Cl)cc(C(=O)O)cc1OC1CC1)cn2C(C1CC1)C1CC1 [P-0363, 3-chloro-5-cyclopropoxy-4-(1-(dicyclopropylmethyl)-5-(3,5-dimethylisoxazol-4-yl)-1H-pyrrolo[2,3-b]pyridin-3-yl)benzoic acid] | 0.1 to 1000 |
| Cc1noc(C)c1-c1cnc2c(c1)c(-c1ccc(C(=O)O)cc1OC(F)(F)F)cn2CC1(C#N)CCC1 [P-0364, 4-(1-((1-cyanocyclobutyl)methyl)-5-(3,5-dimethylisoxazol-4-yl)-1H-pyrrolo[2,3-b]pyridin-3-yl)-3-(trifluoromethoxy)benzoic acid] | 0.1 to 1000 |
| Cc1nn(CC(C)(C)O)cc1-n1cc(-c2ccc(C(=O)O)cc2OC(F)(F)F)c2cc(-c3c(C)noc3C)cnc21 [P-0365, 4-(5-(3,5-dimethylisoxazol-4-yl)-1-(1-(2-hydroxy-2-methylpropyl)-3-methyl-1H-pyrazol-4-yl)-1H-pyrrolo[2,3-b]pyridin-3-yl)-3-(trifluoromethoxy)benzoic acid] | 0.1 to 1000 |
| Cc1nn(CC(=O)N(C)C)cc1-n1cc(-c2ccc(C(=O)O)cc2OC(F)(F)F)c2cc(-c3c(C)noc3C)cnc21 [P-0366, 4-(1-(1-(2-(dimethylamino)-2-oxoethyl)-3-methyl-1H-pyrazol-4-yl)-5-(3,5-dimethylisoxazol-4-yl)-1H-pyrrolo[2,3-b]pyridin-3-yl)-3-(trifluoromethoxy)benzoic acid] | 0.1 to 1000 |
| Cc1cc(C(=O)O)cc(OCC(F)F)c1-c1cn(C2CCOCC2)c2ncc(-c3c(C)noc3C)cc12 [P-0367, 3-(2,2-difluoroethoxy)-4-(5-(3,5-dimethylisoxazol-4-yl)-1-(tetrahydro-2H-pyran-4-yl)-1H-pyrrolo[2,3-b]pyridin-3-yl)-5-methylbenzoic acid] | 0.1 to 1000 |
